“And” between values parts separate entries of the source, which are not always exact repeats. Identical values can stand only once.
Assays:
[1] = tested on: intraocular pressure of rabbits showing normal baseline intraocular pressure; experiment: Intraocular pressure in rabbits with normal intraocular pressure after topical instillation; assay type: in vivo, rabbit (Vienna Blue, pigmented); conditions: Table 2, 50 μl eye-drops: 0.050% flunarizine, 0.5% timolol, or flunarizine/beta-blocker combinations
Description: The effects of the agent of the invention on the intraocular pressure of rabbits showing normal baseline intraocular pressure were evaluated in comparison with the action of a placebo, and with that of various other calcium channel blocking agents. Female pigmented rabbits of the Vienna Blue strain were used (supplied by Charles River Italiana, of Calco (CO)). The age of the animals at the time of starting the experimentation was 9 weeks, and their weight was 2.0-2.5 kg.
The choice of a species with pigmented iris is due to the fact that the latter represents a reliable model for the evaluation of possible modifications of the intraocular pressure caused by the products under test. The strain chosen is genetically defined, so as to limit to a minimum the variability of the biological characteristics between one animal and the other.
The animals were kept in rooms maintained under constant and controlled conditions of temperature and humidity, illuminated for 12 hours a day with artificial light and with continuous renovation of the air. The feed consisted of a standard diet having a constant and known composition, and both feed and water were available ad libitum during the whole period of the test. The rabbits were stabled for 21 days before starting the test, so as to allow a sufficient acclimatation and to suitably evaluate the health conditions of the rabbits. Each experimental group consisted of 4 animals, which were allotted to the treatment groups in a randomised way.
Each different group of animals received, by instillation in the right conjunctival fornix, 50 μl of the following products:
The weight concentrations of the various agents under test are chosen so as to correspond to the same molar concentration.
The pressure in the treated eye was measured by flattening tonometer (TonopenXL®, Mentor), 15 minutes before the instillation of the eyerops (time 0) and then 30, 60, 90, 120, 180 and 240 minutes after. As a local anaesthetic, 5 minutes before carrying out each measurement 25 μl of a commercial ophthalmic solution containing 0.4% oxybuprocaine hydrochloride (Novesine®, Sandoz) was instilled. To carry out the measurement the rabbits were placed in a suitably designed cage, that prevents any sudden movement of the animal under test.
For each animal and at each of the times listed above the average of three subsequent measurements was calculated and recorded, each one said measurements being made after 1 minute from the previous one. The intraocular pressure values at the various times were compared with the values obtained before the treatment, by means of the Student's “t” test. The comparisons between different groups were made by processing the data by the variance analysis (ANOVA) and, where possible, by the Student's “t” test for the comparison of two different experimental groups. Values of p<0.05 were considered to be statistically significant.

[2] = tested on: intraocular pressure of rabbits with ocular hypertension; experiment: Intraocular pressure in rabbits with ocular hypertension induced by α-chymotrypsin; assay type: in vivo, rabbit (Vienna Blue, pigmented); conditions: Table 5, hypertensive rabbits, 50 μl eye-drops: 0.050% flunarizine, 0.5% timolol, or flunarizine/beta-blocker combinations
σ-1 receptors [3] = molecular target: T1, σ-1 receptors (Oryctolagus cuniculus, UniProt G1SD54); experiment: [3H](+)-pentazocine receptor binding and competitive binding on irido-ciliary body membranes; set-up: species or system rabbit (New Zealand albino); conditions: 300 μg membrane protein, 37° C., 150 minutes
T1 construct: cell membranes obtained from the irido-ciliary body complex; from tissue; host or cells: rabbit irido-ciliary body, P2 membrane fraction
Description: In order to identify the presence of a receptor sites in the eye the technique of “receptor binding” has been exploited. The latter has been carried out on cell membranes obtained from the irido-ciliary body complex. The irido-ciliary body complex had been explanted, after sacrifice, from male albino rabbits of the New Zealand strain. The tissue was homogenised in buffer and a fraction rich in cell membrane proteins was isolated, obtained by centrifugation. […] Aliquots of the said fraction of the homogenate containing 300 μg of total proteins were incubated with scalar amounts of [^3H](+)-pentazocine (which is used, for experimental purposes only, as a a ligand). The reaction was carried out at 37° C. for 150 minutes and then, after filtering, the radioactivity left on the filters was measured by liquid scintillation.

σ-1 receptors [4] = molecular target: T1, σ-1 receptors; experiment: Inhibition of 3H(+)-N-allyl-nor-methazocine binding to irido-ciliary body membranes; set-up: species or system rabbit (New Zealand albino); conditions: rabbit irido-ciliary body P2 membranes, 300 μg protein, 37° C., 150 minutes, duplicate
Description: The receptor binding technique was carried out on cell membranes obtained from the irido-ciliary body complex explanted, after sacrifice, from male albino rabbits of the New Zealand strain (Charles River Italiana, of Calco (CO)). The tissue was homogenised in buffer and the P2, fraction, rich in cell membrane proteins, was isolated. […] The La total protein concentration was determined with the Lowry method.
The non specific binding was evaluated in presence of haloperidol.
All tests were carried out in duplicate. The reaction was maintained at 37° C. for 150 minutes, followed by filtration on WhatmannGF/B filters. The radioactivity left on the filters was measured by liquid scintillation spectrometry.

[5] = average ± S.D. of 4 rabbits, 30 min after instillation
[6] = average ± S.D. of 4 rabbits, 60 min after instillation
[7] = average ± S.D. of 4 rabbits, 90 min after instillation
[8] = average ± S.D. of 4 rabbits, 120 min after instillation
[9] = average ± S.D. of 4 rabbits, 180 min after instillation
[10] = average ± S.D. of 4 rabbits, 240 min after instillation
[11] = average ± S.D. of 4 rabbits, time 0 = 15 min before instillation (baseline)
[12] = individual rabbit, right eye, 30 min after instillation
[13] = individual rabbit, right eye, 60 min after instillation
[14] = individual rabbit, right eye, 90 min after instillation
[15] = individual rabbit, right eye, 120 min after instillation
[16] = individual rabbit, right eye, 180 min after instillation
[17] = individual rabbit, right eye, 240 min after instillation
[18] = individual rabbit, right eye, time 0 = 15 min before instillation (baseline)

T1 sequence (G1SD54 1-223): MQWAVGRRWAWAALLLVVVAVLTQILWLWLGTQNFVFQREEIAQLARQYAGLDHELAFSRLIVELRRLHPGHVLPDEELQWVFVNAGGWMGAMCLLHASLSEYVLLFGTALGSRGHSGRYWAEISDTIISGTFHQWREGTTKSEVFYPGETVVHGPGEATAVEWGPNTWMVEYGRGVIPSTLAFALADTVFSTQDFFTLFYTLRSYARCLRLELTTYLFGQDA

Q: With `CC(C)(C)NC[C@H](O)COc1nsnc1N1CCOCC1` [timolol] as the compound, how does the “Intraocular pressure (mmHg) at the time (min): 30, average ± S.D.” value [1, 5] read?
A: 14.7 ± 0.5 mmHg

Q: What about the “Intraocular pressure (mmHg) at the time (min): 60, average ± S.D.” value [1, 6] of the same compound?
A: 13.5 ± 0.6 mmHg

Q: What about the “Intraocular pressure (mmHg) at the time (min): 90, average ± S.D.” value [1, 7] of the same compound?
A: 14.5 ± 0.6 mmHg

Q: And the “Intraocular pressure (mmHg) at the time (min): 120, average ± S.D.” value [1, 8]?
A: 15.5 ± 0.6 mmHg

Q: What about the “Intraocular pressure (mmHg) at the time (min): 180, average ± S.D.” value [1, 9] of the same compound?
A: 16.0 ± 0.6 mmHg

Q: What about the “Intraocular pressure (mmHg) at the time (min): 240, average ± S.D.” value [1, 10] of the same compound?
A: 16.0 ± 0.8 mmHg

Q: What about the “Intraocular pressure (mmHg) at the time (min): 0, average ± S.D.” value [1, 11] of the same compound?
A: 15.7 ± 0.5 mmHg

Q: What about the “Intraocular pressure (mmHg) at the time (min): 30” value [1, 12] of the same compound?
A: 15 mmHg (3×) and 14 mmHg

Q: What about the “Intraocular pressure (mmHg) at the time (min): 60” value [1, 13] of the same compound?
A: 14 mmHg (2×) and 13 mmHg (2×)

Q: What about the “Intraocular pressure (mmHg) at the time (min): 90” value [1, 14] of the same compound?
A: 14 mmHg (2×) and 15 mmHg (2×)

Q: What about the “Intraocular pressure (mmHg) at the time (min): 120” value [1, 15] of the same compound?
A: 15 mmHg (2×) and 16 mmHg (2×)

Q: What about the “Intraocular pressure (mmHg) at the time (min): 180” value [1, 16] of the same compound?
A: 16 mmHg (2×) and 17 mmHg and 15 mmHg

Q: And the “Intraocular pressure (mmHg) at the time (min): 240” value [1, 17]?
A: 16 mmHg (2×) and 17 mmHg and 15 mmHg

Q: And the “Intraocular pressure (mmHg) at the time (min): 0” value [1, 18]?
A: 16 mmHg (3×) and 15 mmHg

Q: What about the “Intraocular pressure (mmHg) at the time (min): 30, average ± S.D.” value [2, 5] of the same compound?
A: 41.7 ± 4.7 mmHg

Q: What about the “Intraocular pressure (mmHg) at the time (min): 60, average ± S.D.” value [2, 6] of the same compound?
A: 39.7 ± 2.9 mmHg

Q: What about the “Intraocular pressure (mmHg) at the time (min): 90, average ± S.D.” value [2, 7] of the same compound?
A: 39.7 ± 2.6 mmHg

Q: What about the “Intraocular pressure (mmHg) at the time (min): 120, average ± S.D.” value [2, 8] of the same compound?
A: 42.5 ± 3.5 mmHg

Q: What about the “Intraocular pressure (mmHg) at the time (min): 180, average ± S.D.” value [2, 9] of the same compound?
A: 46.0 ± 4.9 mmHg

Q: What about the “Intraocular pressure (mmHg) at the time (min): 240, average ± S.D.” value [2, 10] of the same compound?
A: 48.2 ± 4.4 mmHg

Q: What about the “Intraocular pressure (mmHg) at the time (min): 0, average ± S.D.” value [2, 11] of the same compound?
A: 49.0 ± 5.3 mmHg

Q: What about the “Intraocular pressure (mmHg) at the time (min): 30” value [2, 12] of the same compound?
A: 43 mmHg and 45 mmHg and 39 mmHg and 40 mmHg

Q: What about the “Intraocular pressure (mmHg) at the time (min): 60” value [2, 13] of the same compound?
A: 42 mmHg (2×) and 39 mmHg and 36 mmHg

Q: What about the “Intraocular pressure (mmHg) at the time (min): 90” value [2, 14] of the same compound?
A: 42 mmHg (2×) and 38 mmHg and 37 mmHg

Q: What about the “Intraocular pressure (mmHg) at the time (min): 120” value [2, 15] of the same compound?
A: 46 mmHg and 45 mmHg and 39 mmHg and 40 mmHg

Q: And the “Intraocular pressure (mmHg) at the time (min): 180” value [2, 16]?
A: 52 mmHg and 48 mmHg and 42 mmHg (2×)

Q: And the “Intraocular pressure (mmHg) at the time (min): 240” value [2, 17]?
A: 53 mmHg and 51 mmHg and 45 mmHg and 44 mmHg

Q: What about the “Intraocular pressure (mmHg) at the time (min): 0” value [2, 18] of the same compound?
A: 53 mmHg and 54 mmHg and 46 mmHg and 43 mmHg

Q: Which “Binding to receptor sites of the iridociliary body region” value (σ-1 receptors [3]) does the source give for `CC(C)=CCN1CC[C@]2(C)c3cc(O)ccc3C[C@H]1[C@H]2C` [[^3H])(+)-pentazocine, [^3H](+)-pentazocine] here?
A: selectively binds to receptor sites

Q: `COCCOC(=O)C1=C(C)NC(C)=C(C(=O)OC(C)C)C1c1cccc([N+](=O)[O-])c1` (stereo not drawn) [nimodipine] was tested. Which IC50 (σ-1 receptors [4]) did it give?
A: > 10 µM
